Results on nine compounds are retold here after PubChem BioAssay (NCI).

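Five compound concentrations were applied to cells in 96-well plates for 48 hours; endpoints were derived by simple linear interpolation of the resulting dose-response curve. The concentration for full growth arrest is given as TGI.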

The first assay concerns HCT-116 colon. The experiment in a line: growth of human tumour cells (NCI), 48 h.
In turn, `OC1(c2cccs2)c2cccc(Cl)c2C(O)(c2cccs2)c2c(Cl)cccc21` (stereo not given) yielded a TGI above 100 µM.

On to `CCc1c2c([nH]c(=S)c1C#N)CCC2`, for which the TGI was above 100 µM.

In turn, `C=CCN1C(=O)/C(=C/c2ccc(OC)cc2)N=C1SC/C=C/C` gave a TGI above 100 µM.

Turning to `O=C(ON=C1c2ccccc2C(Br)C(Br)c2ccccc21)c1cc([N+](=O)[O-])cc([N+](=O)[O-])c1` (stereo not given), the TGI came to 32.5 µM.

The compound `Cn1c2ccccc2c2c(-c3ccccc3)cc3c(c21)C(=O)C=CC3=O` had a TGI of 2.91 µM.

The compound `C=CCNC1=C2C[C@@H](C)C[C@@H](OC)[C@H](OC(=O)CCN)[C@H](C)/C=C(\C)[C@@H](OC(N)=O)[C@H](OC)/C=C\C=C(/C)C(=O)NC(=CC1=O)C2=O` displayed a TGI of 13.6 µM.

As to `C1=NCCN2CCN(CCN=Cc3ccc(cc3)OCc3cccc(n3)COc3ccc1cc3)CC2`, the TGI was above 50 µM.

`CC(CCN)(CCN)[N+](=O)[O-]`: the TGI is above 100 µM.

Take `O=C([O-])C[n+]1ccccc1`: the TGI was above 100 µM.

The next assay concerns EKVX NSCLC. The assay can be described thus: growth of human tumour cells (NCI), 48 h.
For the compound `OC1(c2cccs2)c2cccc(Cl)c2C(O)(c2cccs2)c2c(Cl)cccc21` (stereo not given), the TGI was above 100 µM.

As for `CCc1c2c([nH]c(=S)c1C#N)CCC2`, the TGI stood at 75.6 µM.

The compound `C=CCN1C(=O)/C(=C/c2ccc(OC)cc2)N=C1SC/C=C/C` gave a TGI above 100 µM.

For the compound `O=C(ON=C1c2ccccc2C(Br)C(Br)c2ccccc21)c1cc([N+](=O)[O-])cc([N+](=O)[O-])c1` (stereo not given), the TGI came to 59.8 µM.

As to `Cn1c2ccccc2c2c(-c3ccccc3)cc3c(c21)C(=O)C=CC3=O`, the TGI was above 8.39 µM.

As to `C=CCNC1=C2C[C@@H](C)C[C@@H](OC)[C@H](OC(=O)CCN)[C@H](C)/C=C(\C)[C@@H](OC(N)=O)[C@H](OC)/C=C\C=C(/C)C(=O)NC(=CC1=O)C2=O`, the TGI was found to be 36.4 µM.

`C1=NCCN2CCN(CCN=Cc3ccc(cc3)OCc3cccc(n3)COc3ccc1cc3)CC2` registered a TGI above 50 µM.

`CC(CCN)(CCN)[N+](=O)[O-]`: the TGI was above 100 µM.

`O=C([O-])C[n+]1ccccc1` had a TGI above 100 µM.

A further assay relates to SK-MEL-28 melanoma. The assay can be described thus: growth of human tumour cells (NCI), 48 h.
`OC1(c2cccs2)c2cccc(Cl)c2C(O)(c2cccs2)c2c(Cl)cccc21` (stereo not given) yielded a TGI above 100 µM.

Turning to `CCc1c2c([nH]c(=S)c1C#N)CCC2`, the TGI was above 100 µM.

`C=CCN1C(=O)/C(=C/c2ccc(OC)cc2)N=C1SC/C=C/C` showed a TGI above 100 µM.

`O=C(ON=C1c2ccccc2C(Br)C(Br)c2ccccc21)c1cc([N+](=O)[O-])cc([N+](=O)[O-])c1` (stereo not given) had a TGI of 34.6 µM.

Turning to `Cn1c2ccccc2c2c(-c3ccccc3)cc3c(c21)C(=O)C=CC3=O`, the TGI was determined as 4.34 µM.

`C=CCNC1=C2C[C@@H](C)C[C@@H](OC)[C@H](OC(=O)CCN)[C@H](C)/C=C(\C)[C@@H](OC(N)=O)[C@H](OC)/C=C\C=C(/C)C(=O)NC(=CC1=O)C2=O` yielded a TGI of 44.2 µM.

In turn, `C1=NCCN2CCN(CCN=Cc3ccc(cc3)OCc3cccc(n3)COc3ccc1cc3)CC2` returned a TGI above 50 µM.

Take `CC(CCN)(CCN)[N+](=O)[O-]`: the TGI was above 100 µM.

On to `O=C([O-])C[n+]1ccccc1`, for which the TGI is above 100 µM.

Another assay has as its system COLO 205 colon. The experiment in a line: growth of human tumour cells (NCI), 48 h.
As to `OC1(c2cccs2)c2cccc(Cl)c2C(O)(c2cccs2)c2c(Cl)cccc21` (stereo not given), the TGI was above 100 µM.

`CCc1c2c([nH]c(=S)c1C#N)CCC2` gave a TGI above 100 µM.

As to `C=CCN1C(=O)/C(=C/c2ccc(OC)cc2)N=C1SC/C=C/C`, the TGI was above 100 µM.

As for `O=C(ON=C1c2ccccc2C(Br)C(Br)c2ccccc21)c1cc([N+](=O)[O-])cc([N+](=O)[O-])c1` (stereo not given), the TGI came out at 40 µM.

Regarding `Cn1c2ccccc2c2c(-c3ccccc3)cc3c(c21)C(=O)C=CC3=O`, the TGI came out at 2.05 µM.

In turn, `C=CCNC1=C2C[C@@H](C)C[C@@H](OC)[C@H](OC(=O)CCN)[C@H](C)/C=C(\C)[C@@H](OC(N)=O)[C@H](OC)/C=C\C=C(/C)C(=O)NC(=CC1=O)C2=O` gave a TGI of 10.1 µM.

As to `C1=NCCN2CCN(CCN=Cc3ccc(cc3)OCc3cccc(n3)COc3ccc1cc3)CC2`, the TGI is above 50 µM.

In turn, `CC(CCN)(CCN)[N+](=O)[O-]` showed a TGI above 100 µM.

`O=C([O-])C[n+]1ccccc1` yielded a TGI above 100 µM.

A further assay deals with HOP-92 NSCLC. The experiment in a line: growth of human tumour cells (NCI), 48 h.
`OC1(c2cccs2)c2cccc(Cl)c2C(O)(c2cccs2)c2c(Cl)cccc21` (stereo not given) displayed a TGI above 100 µM.

The compound `CCc1c2c([nH]c(=S)c1C#N)CCC2` had a TGI above 100 µM.

With `C=CCN1C(=O)/C(=C/c2ccc(OC)cc2)N=C1SC/C=C/C`, the TGI amounted to 93.8 µM.

In turn, `O=C(ON=C1c2ccccc2C(Br)C(Br)c2ccccc21)c1cc([N+](=O)[O-])cc([N+](=O)[O-])c1` (stereo not given) registered a TGI of 39.8 µM.

`Cn1c2ccccc2c2c(-c3ccccc3)cc3c(c21)C(=O)C=CC3=O` showed a TGI of 3.78 µM.

Consider `C=CCNC1=C2C[C@@H](C)C[C@@H](OC)[C@H](OC(=O)CCN)[C@H](C)/C=C(\C)[C@@H](OC(N)=O)[C@H](OC)/C=C\C=C(/C)C(=O)NC(=CC1=O)C2=O`, for which the TGI is 16.9 µM.

In turn, `C1=NCCN2CCN(CCN=Cc3ccc(cc3)OCc3cccc(n3)COc3ccc1cc3)CC2` had a TGI above 50 µM.

In turn, `CC(CCN)(CCN)[N+](=O)[O-]` had a TGI above 100 µM.

`O=C([O-])C[n+]1ccccc1` gave a TGI above 100 µM.

The next assay concerns HL-60(TB) leukemia. The experiment in a line: growth of human tumour cells (NCI), 48 h.
On to `OC1(c2cccs2)c2cccc(Cl)c2C(O)(c2cccs2)c2c(Cl)cccc21` (stereo not given), for which the TGI was above 100 µM.

`CCc1c2c([nH]c(=S)c1C#N)CCC2` showed a TGI above 100 µM.

`C=CCN1C(=O)/C(=C/c2ccc(OC)cc2)N=C1SC/C=C/C`: the TGI stood at 54.4 µM.

Compound `O=C(ON=C1c2ccccc2C(Br)C(Br)c2ccccc21)c1cc([N+](=O)[O-])cc([N+](=O)[O-])c1` (stereo not given) gave a TGI of 0.422 µM.

Take `Cn1c2ccccc2c2c(-c3ccccc3)cc3c(c21)C(=O)C=CC3=O`: the TGI worked out at 1.1 µM.

`C=CCNC1=C2C[C@@H](C)C[C@@H](OC)[C@H](OC(=O)CCN)[C@H](C)/C=C(\C)[C@@H](OC(N)=O)[C@H](OC)/C=C\C=C(/C)C(=O)NC(=CC1=O)C2=O` had a TGI of 17.9 µM.

On to `C1=NCCN2CCN(CCN=Cc3ccc(cc3)OCc3cccc(n3)COc3ccc1cc3)CC2`, for which the TGI was above 50 µM.

In turn, `CC(CCN)(CCN)[N+](=O)[O-]` yielded a TGI above 100 µM.

In the case of `O=C([O-])C[n+]1ccccc1`, the TGI was above 100 µM.

The subject of a further assay is SNB-19 CNS. The assay can be described thus: growth of human tumour cells (NCI), 48 h.
Regarding `OC1(c2cccs2)c2cccc(Cl)c2C(O)(c2cccs2)c2c(Cl)cccc21` (stereo not given), the TGI is above 100 µM.

`CCc1c2c([nH]c(=S)c1C#N)CCC2` displayed a TGI above 100 µM.

On to `C=CCN1C(=O)/C(=C/c2ccc(OC)cc2)N=C1SC/C=C/C`, for which the TGI is above 100 µM.

The compound `O=C(ON=C1c2ccccc2C(Br)C(Br)c2ccccc21)c1cc([N+](=O)[O-])cc([N+](=O)[O-])c1` (stereo not given) returned a TGI of 56.8 µM.

Turning to `Cn1c2ccccc2c2c(-c3ccccc3)cc3c(c21)C(=O)C=CC3=O`, the TGI was above 10 µM.

Compound `C=CCNC1=C2C[C@@H](C)C[C@@H](OC)[C@H](OC(=O)CCN)[C@H](C)/C=C(\C)[C@@H](OC(N)=O)[C@H](OC)/C=C\C=C(/C)C(=O)NC(=CC1=O)C2=O` registered a TGI of 20.9 µM.

Compound `C1=NCCN2CCN(CCN=Cc3ccc(cc3)OCc3cccc(n3)COc3ccc1cc3)CC2` had a TGI above 50 µM.

Compound `CC(CCN)(CCN)[N+](=O)[O-]` yielded a TGI above 100 µM.

For `O=C([O-])C[n+]1ccccc1`, the TGI is above 100 µM.

For the next assay, the system named is MCF7 breast. The assay can be described thus: growth of human tumour cells (NCI), 48 h.
In turn, `OC1(c2cccs2)c2cccc(Cl)c2C(O)(c2cccs2)c2c(Cl)cccc21` (stereo not given) showed a TGI above 100 µM.

In turn, `CCc1c2c([nH]c(=S)c1C#N)CCC2` gave a TGI above 100 µM.

`C=CCN1C(=O)/C(=C/c2ccc(OC)cc2)N=C1SC/C=C/C` gave a TGI above 100 µM.

As to `O=C(ON=C1c2ccccc2C(Br)C(Br)c2ccccc21)c1cc([N+](=O)[O-])cc([N+](=O)[O-])c1` (stereo not given), the TGI was found to be 48 µM.

The compound `Cn1c2ccccc2c2c(-c3ccccc3)cc3c(c21)C(=O)C=CC3=O` had a TGI of 4.35 µM.

`C=CCNC1=C2C[C@@H](C)C[C@@H](OC)[C@H](OC(=O)CCN)[C@H](C)/C=C(\C)[C@@H](OC(N)=O)[C@H](OC)/C=C\C=C(/C)C(=O)NC(=CC1=O)C2=O` had a TGI of 7.71 µM.

On to `C1=NCCN2CCN(CCN=Cc3ccc(cc3)OCc3cccc(n3)COc3ccc1cc3)CC2`, for which the TGI was above 50 µM.

Turning to `CC(CCN)(CCN)[N+](=O)[O-]`, the TGI is above 100 µM.

`O=C([O-])C[n+]1ccccc1` came in with a TGI above 100 µM.

In a further assay the test system is OVCAR-8 ovarian. The experiment in a line: growth of human tumour cells (NCI), 48 h.
The compound `OC1(c2cccs2)c2cccc(Cl)c2C(O)(c2cccs2)c2c(Cl)cccc21` (stereo not given) had a TGI above 100 µM.

`CCc1c2c([nH]c(=S)c1C#N)CCC2` displayed a TGI above 100 µM.

Consider `C=CCN1C(=O)/C(=C/c2ccc(OC)cc2)N=C1SC/C=C/C`, for which the TGI worked out at 80.1 µM.

`O=C(ON=C1c2ccccc2C(Br)C(Br)c2ccccc21)c1cc([N+](=O)[O-])cc([N+](=O)[O-])c1` (stereo not given) gave a TGI of 36.5 µM.

On to `Cn1c2ccccc2c2c(-c3ccccc3)cc3c(c21)C(=O)C=CC3=O`, for which the TGI amounted to 5.12 µM.

In turn, `C=CCNC1=C2C[C@@H](C)C[C@@H](OC)[C@H](OC(=O)CCN)[C@H](C)/C=C(\C)[C@@H](OC(N)=O)[C@H](OC)/C=C\C=C(/C)C(=O)NC(=CC1=O)C2=O` returned a TGI of 18.4 µM.

The compound `C1=NCCN2CCN(CCN=Cc3ccc(cc3)OCc3cccc(n3)COc3ccc1cc3)CC2` had a TGI above 50 µM.

Compound `CC(CCN)(CCN)[N+](=O)[O-]` showed a TGI above 100 µM.

Take `O=C([O-])C[n+]1ccccc1`: the TGI was above 100 µM.

A further assay deals with K-562 leukemia. The assay can be described thus: growth of human tumour cells (NCI), 48 h.
The compound `OC1(c2cccs2)c2cccc(Cl)c2C(O)(c2cccs2)c2c(Cl)cccc21` (stereo not given) showed a TGI above 100 µM.

As to `CCc1c2c([nH]c(=S)c1C#N)CCC2`, the TGI was above 100 µM.

As to `C=CCN1C(=O)/C(=C/c2ccc(OC)cc2)N=C1SC/C=C/C`, the TGI was above 100 µM.

Consider `O=C(ON=C1c2ccccc2C(Br)C(Br)c2ccccc21)c1cc([N+](=O)[O-])cc([N+](=O)[O-])c1` (stereo not given), for which the TGI was found to be 45.3 µM.

The compound `Cn1c2ccccc2c2c(-c3ccccc3)cc3c(c21)C(=O)C=CC3=O` gave a TGI above 3.46 µM.

For `C=CCNC1=C2C[C@@H](C)C[C@@H](OC)[C@H](OC(=O)CCN)[C@H](C)/C=C(\C)[C@@H](OC(N)=O)[C@H](OC)/C=C\C=C(/C)C(=O)NC(=CC1=O)C2=O`, the TGI was above 100 µM.

The compound `C1=NCCN2CCN(CCN=Cc3ccc(cc3)OCc3cccc(n3)COc3ccc1cc3)CC2` had a TGI above 50 µM.

`CC(CCN)(CCN)[N+](=O)[O-]` came in with a TGI above 100 µM.

`O=C([O-])C[n+]1ccccc1` returned a TGI above 100 µM.
